Entries after “also recorded” stand apart in the source; their conditions may differ. Structures can show the parent of a compound that is named as a salt.
Experiments:
[1] = system: STZ-induced diabetic rats; test: Treatment of STZ-induced diabetic rats with a salt of lithospermic acid; type: in vivo, Sprague-Dawley rats
Experimental: Sprague-Dawley rats (3-4 months of age, 250-300 g) were housed individually in sterile microisolator cages in a Specific Pathogen Free animal care facility. Rats were fed standard Rat chow and water was available ad libitum. Animals were maintained in temperature (25° C.) and humidity (40%) controlled rooms with a 12-h light/12 h dark cycle. Rats were randomly assigned to three experimental groups: Group I, nondiabetic control (n=10), Group II, untreated diabetic (n=10); and Group III, salt of lithospermic acid-treated diabetic (n=10). Insulin dependent diabetes was induced by a single intravenous injection of freshly prepared streptozotocin (STZ) (50 mg/kg in 0.1 M citrate buffer, pH 4.5) (Schmidt, R. E., et al., Diabetes 45(3):284-290 (1996)). A rat was considered diabetic when the nonfasting plasma glucose level was greater than about 17 mmol/L, 3 days following injection of STZ. Eight weeks following the administration of STZ, animals were treated with a salt of lithospermic acid by intramuscularly injections once daily (20 mg salt of lithospermic acid/kg body weight) for 8 weeks. Body weights were recorded weekly before and throughout the treatment period. Twenty-four hour urine and glycosylated hemoglobin levels were determined at 8, 12 and 16 weeks after injection of STZ. Urine samples were centrifuged (3000 rpm for 10 min) and the supernatant analyzed for creatinine and protein levels using standard techniques (Matsuo, Y., et al., Pharmacology 50:1-8 (1995)).

protein kinase C (PKC) = test: High glucose-induced protein kinase C activity in mesangial cells; type: cell-based, Murine; conditions: MES-13 cells, 30 mM glucose 5 days, then 25 or 50 μg/mL for 24 hours
Experimental: Murine renal mesangial cells were used in these experiments. The mesangial cells (MES-13) were cloned from transgenic mice. The twenty-fifth passage of the originally plated cells was used in the experiments. MES-13 cells were grown in Dulbecco's Modified Eagle's Medium (DMEM) containing 15% fetal bovine serum (FBS), 1% streptomycin-penicillin mixture, fungizone 0.2 μg/mL, 44 mM NaHCO3 and 14 mM HEPES at 37° C. in a humid atmosphere containing 5% CO2 and 95% air. Subcultures were seeded from confluent stock cultures by trypsinization in Hanks balanced salt solution containing 0.5 mM EDTA and 0.025% trypsin and grown in DMEM containing 15% FBS for 24 hr to near confluence (80%). Near confluent cells were incubated with serum-free DMEM to arrest cell growth and synchronize cell cultures. After 24 hr, the media was changed to serum-free DMEM containing 5.5 mM (normal) or 30 mM (high) glucose and cells cultured for 5 days. […] The amount of PKC in lysates of cells cultured in presence of high glucose (30 mM) and normal glucose (control, 5.5 mM) was determined using a commercially available kit (Upstate Biotechnology, Lake Placid N.Y.). […] Assay squares were placed into vials and radioactivity determined by scintillation counting. PKC activity was expressed as pmol/min/protein. Significant differences between group means were determined using the unpaired or paired Student's t-test.

TGF-β1 = test: High glucose-induced TGF-β1 secretion from mesangial cells (Western blot); type: cell-based, Murine; conditions: MES-13 cells, 30 mM glucose, 25 or 50 μg/mL for 24 hours
Experimental: (§1) Murine renal mesangial cells were used in these experiments. The mesangial cells (MES-13) were cloned from transgenic mice. The twenty-fifth passage of the originally plated cells was used in the experiments. MES-13 cells were grown in Dulbecco's Modified Eagle's Medium (DMEM) containing 15% fetal bovine serum (FBS), 1% streptomycin-penicillin mixture, fungizone 0.2 μg/mL, 44 mM NaHCO3 and 14 mM HEPES at 37° C. in a humid atmosphere containing 5% CO2 and 95% air. Subcultures were seeded from confluent stock cultures by trypsinization in Hanks balanced salt solution containing 0.5 mM EDTA and 0.025% trypsin and grown in DMEM containing 15% FBS for 24 hr to near confluence (80%). Near confluent cells were incubated with serum-free DMEM to arrest cell growth and synchronize cell cultures. After 24 hr, the media was changed to serum-free DMEM containing 5.5 mM (normal) or 30 mM (high) glucose and cells cultured for 5 days. Cells were then incubated with a salt of lithospermic acid at 25 μg/mL or 50 μg/mL for 24 hours. […] Protein concentration in cell lysate and culture media samples was determined by the method of Lowry with BSA as a standard (Lowry, O. H., et al., J. Biol. Chem. 193:265-275 (1951)). […] After washing, the antigen-antibody complexes were detected by enhanced chemiluminesence (Amersham International, England) and quantitated densitometry.

fibronectin = test: High glucose-induced fibronectin synthesis and secretion from mesangial cells (Western blot); type: cell-based, Murine; conditions: MES-13 cells, 30 mM glucose, 50 μg/mL
Experimental: as §1

ERK2 = test: High glucose-induced phosphorylation of ERK in mesangial cells (Western blot); type: cell-based, Murine; conditions: MES-13 cells, 30 mM glucose, 50 μg/mL
Experimental: as §1

MEK2 = test: High glucose-induced phosphorylation of MEK in mesangial cells (Western blot); type: cell-based, Murine; conditions: MES-13 cells
Experimental: as §1

[2] = treated diabetic rats, 20 mg/kg intramuscularly once daily for 8 weeks

With `O=C(/C=C/c1ccc(O)c2c1[C@H](C(=O)O)[C@@H](c1ccc(O)c(O)c1)O2)O[C@H](Cc1ccc(O)c(O)c1)C(=O)O` [salt of lithospermic acid] the “effect on blood glucose levels in diabetic rats” value ([1]; 20 mg/kg intramuscularly once daily for 8 weeks) was “did not significantly lower blood glucose levels”, the “urinary protein levels (FIG. 1)” value ([1]; 20 mg/kg intramuscularly once daily for 8 weeks, started 8 weeks after STZ, compared to untreated diabetic and nondiabetic control rats) was “significantly (p<0.001) lowered urinary protein levels; also recorded: approached the levels observed in control, nondiabetic rats” and the HCT ([1]; treated diabetic rats) was 37.44 ± 3.13%. For the same molecule, the Hb ([1]; treated diabetic rats) was 14.44 ± 0.87 g/dL, the MCH ([1]; treated diabetic rats) was 21.13 ± 0.69 pg and the WBC ([1]; treated diabetic rats) was 11.95 ± 4.66 × 10(3). It also gave an Albumin [1, 2] of 1.75 ± 0.31 g/dL, a BUN [1, 2] of 28.1 ± 5.32 mg/dL and a Bilirubin [1, 2] of 1.14 ± 1.10 mg/dL. The Cholesterol [1, 2] was 47 ± 7.35 mg/dL, the Cl [1, 2] was 101.5 ± 2.65 mmol/L and the Creatinine [1, 2] was 0.6 ± 0.12 mg/dL. For the same molecule, the “D. Bil” value [1, 2] was 0.67 ± 0.7 mg/dL, the GOT [1, 2] was 239 ± 157 U/L and the GPT [1, 2] was 102.75 ± 73.74 U/L. It also gave a Glucose [1, 2] of 508.5 ± 160.4 mg/dL, a K [1, 2] of 19.53 ± 12.8 mmol/L and a Na [1, 2] of 130.3 ± 6.24 mmol/L. The “Serum Protein” value [1, 2] was 6.28 ± 0.54 g/dL, the “Uric Acid” value [1, 2] was 1.6 ± 1.07 mg/dL and the r-GTP [1, 2] was 2.75 ± 2.75 U/L. The HbAlc ([1]; treated diabetic rats, p < 0.01 vs. control) was 8.59 ± 1.59 %, the “PKC activity in high glucose (FIG. 2)” value (protein kinase C (PKC)) was “decreased PKC activity” and the “TGF-β1 secretion in high glucose (FIG. 3)” value (TGF-β1) was “decreased high glucose-induced TGF-β1 secretion”. The “fibronectin levels in high glucose (FIG. 4)” value (fibronectin) was “decreased fibronectin levels to about that of control levels”, the “phosphorylated ERK2 in high glucose (FIG. 5)” value (ERK2) was “decrease in phosphorylated ERK2 to about control levels” and the “phosphorylated MEK2 (MEK P) in high glucose (FIG. 7)” value (MEK2; high glucose, 50 μg/mL) was “approached control levels”. The “total amount of MEK2 (MEK2-T, phosphorylated and nonphosphorylated) (FIG. 8)” value (MEK2; regardless of glucose concentration or treatment) was “remained constant”.

— patent US20020025347A1, “Treatment of diabetic nephropathy and microalbuminuria” (Shiva Biomedical, LLC, priority 1999, published 2002)
